Results published in PubChem BioAssay (NCI).
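Interpolation was linear, between the two tested concentrations surrounding the appropriate level; five concentrations were tested over 48 hours in 96-well plates. At the TGI there is no net growth.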

Tests used:
Experiment in all cases: inhibition of tumour cell growth, NCI panel, 48 h
BT-549 breast = system: BT-549 breast
HS 578T breast = system: HS 578T breast
MDA-MB-231 breast = system: MDA-MB-231 breast
HOP-92 NSCLC = system: HOP-92 NSCLC
SK-MEL-2 melanoma = system: SK-MEL-2 melanoma
COLO 205 colon = system: COLO 205 colon
UACC-257 melanoma = system: UACC-257 melanoma
OVCAR-5 ovarian = system: OVCAR-5 ovarian
HCT-15 colon = system: HCT-15 colon
SK-MEL-28 melanoma = system: SK-MEL-28 melanoma
K-562 leukemia = system: K-562 leukemia
ACHN renal = system: ACHN renal
MDA-N = system: MDA-N
NCI-H460 lung = system: NCI-H460 lung
TK-10 renal = system: TK-10 renal
HL-60(TB) leukemia = system: HL-60(TB) leukemia
IGROV1 ovarian = system: IGROV1 ovarian
RPMI-8226 leukemia = system: RPMI-8226 leukemia
NCI-H23 lung = system: NCI-H23 lung
EKVX NSCLC = system: EKVX NSCLC
CAKI-1 renal = system: CAKI-1 renal
OVCAR-3 ovarian = system: OVCAR-3 ovarian
MALME-3M melanoma = system: MALME-3M melanoma
KM12 colon = system: KM12 colon
HCT-116 colon = system: HCT-116 colon
MOLT-4 leukemia = system: MOLT-4 leukemia
HT29 colon = system: HT29 colon
SF-539 CNS = system: SF-539 CNS
NCI-H226 lung = system: NCI-H226 lung
NCI-H522 lung = system: NCI-H522 lung
SF-268 CNS = system: SF-268 CNS
M14 melanoma = system: M14 melanoma
OVCAR-4 ovarian = system: OVCAR-4 ovarian
UO-31 renal = system: UO-31 renal
SK-OV-3 ovarian = system: SK-OV-3 ovarian
PC-3 prostate = system: PC-3 prostate
SNB-19 CNS = system: SNB-19 CNS
UACC-62 melanoma = system: UACC-62 melanoma
LOX IMVI melanoma = system: LOX IMVI melanoma
SF-295 CNS = system: SF-295 CNS
SN12C renal = system: SN12C renal
HOP-62 NSCLC = system: HOP-62 NSCLC
U251 CNS = system: U251 CNS
SW-620 colon = system: SW-620 colon
A498 renal = system: A498 renal
MDA-MB-435 = system: MDA-MB-435
NCI/ADR-RES ovarian = system: NCI/ADR-RES ovarian
T-47D breast = system: T-47D breast
RXF 393 renal = system: RXF 393 renal
786-0 renal = system: 786-0 renal
SK-MEL-5 melanoma = system: SK-MEL-5 melanoma
A549 NSCLC = system: A549 NSCLC
CCRF-CEM leukemia = system: CCRF-CEM leukemia
OVCAR-8 ovarian = system: OVCAR-8 ovarian
SR leukemia = system: SR leukemia
MCF7 breast = system: MCF7 breast
DU-145 prostate = system: DU-145 prostate

Compound: O=C1c2ccccc2C(=O)N1CC1(C(=O)O)NCCS1(=O)=O (centres undefined)
- TGI (BT-549 breast): > 100 µM
- TGI (HS 578T breast): > 100 µM
- TGI (MDA-MB-231 breast): > 100 µM
- TGI (HOP-92 NSCLC): > 100 µM
- TGI (SK-MEL-2 melanoma): > 100 µM
- TGI (COLO 205 colon): > 100 µM
- TGI (UACC-257 melanoma): > 100 µM
- TGI (OVCAR-5 ovarian): > 100 µM
- TGI (HCT-15 colon): > 100 µM
- TGI (SK-MEL-28 melanoma): > 100 µM
- TGI (K-562 leukemia): > 100 µM
- TGI (ACHN renal): > 100 µM
- TGI (MDA-N): > 100 µM
- TGI (NCI-H460 lung): > 100 µM
- TGI (TK-10 renal): > 100 µM
- TGI (HL-60(TB) leukemia): > 100 µM
- TGI (IGROV1 ovarian): > 100 µM
- TGI (RPMI-8226 leukemia): > 100 µM
- TGI (NCI-H23 lung): > 100 µM
- TGI (EKVX NSCLC): > 100 µM
- TGI (CAKI-1 renal): > 100 µM
- TGI (OVCAR-3 ovarian): > 100 µM
- TGI (MALME-3M melanoma): > 100 µM
- TGI (KM12 colon): > 100 µM
- TGI (HCT-116 colon): > 100 µM
- TGI (MOLT-4 leukemia): > 100 µM
- TGI (HT29 colon): > 100 µM
- TGI (SF-539 CNS): > 100 µM
- TGI (NCI-H226 lung): > 100 µM
- TGI (NCI-H522 lung): > 100 µM
- TGI (SF-268 CNS): > 100 µM
- TGI (M14 melanoma): > 100 µM
- TGI (OVCAR-4 ovarian): > 100 µM
- TGI (UO-31 renal): > 100 µM
- TGI (SK-OV-3 ovarian): > 100 µM
- TGI (PC-3 prostate): > 100 µM
- TGI (SNB-19 CNS): > 100 µM
- TGI (UACC-62 melanoma): > 100 µM
- TGI (LOX IMVI melanoma): > 100 µM
- TGI (SF-295 CNS): > 100 µM
- TGI (SN12C renal): > 100 µM
- TGI (HOP-62 NSCLC): > 100 µM
- TGI (U251 CNS): > 100 µM
- TGI (SW-620 colon): > 100 µM
- TGI (A498 renal): > 100 µM
- TGI (MDA-MB-435): > 100 µM
- TGI (NCI/ADR-RES ovarian): > 100 µM
- TGI (T-47D breast): > 100 µM
- TGI (RXF 393 renal): > 100 µM
- TGI (786-0 renal): > 100 µM
- TGI (SK-MEL-5 melanoma): > 100 µM
- TGI (A549 NSCLC): > 100 µM
- TGI (CCRF-CEM leukemia): > 100 µM
- TGI (OVCAR-8 ovarian): > 100 µM
- TGI (SR leukemia): > 100 µM
- TGI (MCF7 breast): > 100 µM

Compound: CC1=C/C(=N\OCC(=O)O)CC(c2ccc(C(C)C)cc2)C1 (centres undefined)
- TGI (HS 578T breast): > 100 µM
- TGI (MDA-MB-231 breast): > 100 µM
- TGI (DU-145 prostate): > 100 µM
- TGI (HOP-92 NSCLC): > 100 µM
- TGI (SK-MEL-2 melanoma): > 100 µM
- TGI (COLO 205 colon): > 100 µM
- TGI (UACC-257 melanoma): > 100 µM
- TGI (OVCAR-5 ovarian): > 100 µM
- TGI (HCT-15 colon): 71.9 µM
- TGI (K-562 leukemia): > 100 µM
- TGI (MDA-N): > 100 µM
- TGI (NCI-H460 lung): > 100 µM
- TGI (HL-60(TB) leukemia): > 100 µM
- TGI (IGROV1 ovarian): > 100 µM
- TGI (RPMI-8226 leukemia): 57.1 µM
- TGI (EKVX NSCLC): > 100 µM
- TGI (CAKI-1 renal): > 100 µM
- TGI (MALME-3M melanoma): > 100 µM
- TGI (KM12 colon): > 100 µM
- TGI (HCT-116 colon): > 100 µM
- TGI (MOLT-4 leukemia): 68.1 µM
- TGI (HT29 colon): 37.6 µM
- TGI (SF-539 CNS): > 100 µM
- TGI (NCI-H522 lung): 79.1 µM
- TGI (M14 melanoma): > 100 µM
- TGI (SK-OV-3 ovarian): > 100 µM
- TGI (PC-3 prostate): > 100 µM
- TGI (UACC-62 melanoma): > 100 µM
- TGI (SF-295 CNS): > 100 µM
- TGI (SN12C renal): > 100 µM
- TGI (U251 CNS): > 100 µM
- TGI (SW-620 colon): > 100 µM
- TGI (MDA-MB-435): > 100 µM
- TGI (NCI/ADR-RES ovarian): 75.5 µM
- TGI (T-47D breast): > 100 µM
- TGI (RXF 393 renal): > 100 µM
- TGI (786-0 renal): > 100 µM
- TGI (SK-MEL-5 melanoma): 34.1 µM
- TGI (A549 NSCLC): > 100 µM
- TGI (CCRF-CEM leukemia): > 100 µM
- TGI (OVCAR-8 ovarian): > 100 µM
- TGI (SR leukemia): > 100 µM
- TGI (MCF7 breast): > 100 µM
